Measurements: ChEMBL document CHEMBL5143526, “Acridine-O6-benzylguanine hybrids: Synthesis, DNA binding, MGMT inhibition and antiproliferative activity” (Eur J Med Chem, 2022)
Calls of active or inactive are those of the source. The rule behind the calls is not given here.

System: T98G
Assay: Additive antiproliferative activity against human T98G cells assessed as reduction in cell viability at GI50 pretreated for 2 hrs followed by TMZ addition at 375 uM and measured after 94 hrs by CellTiter-Glo luminescent cell viability assay
Format: functional, cell-based
Conditions: time 96.0 hrs

| SMILES | Activity |
| --- | --- |
| COc1ccc2nc3cc(Cl)ccc3c(NCCCCn3cnc4c(=O)[nH]c(N)nc43)c2c1 | Active |
| COc1ccc2nc3cc(Cl)ccc3c(NCCC(=O)NCc3cccc(COc4nc(N)nc5[nH]cnc45)c3)c2c1 | Active |
| COc1ccc2nc3cc(Cl)ccc3c(NCCCCn3cnc4c(Oc5ccccc5)nc(N)nc43)c2c1 | Active |

System: T98G
Assay: Antiproliferative activity against human T98G cells assessed as cell viability at 25 uM incubated for 96 hrs by CellTiter-Glo luminescent cell viability assay relative to control
Format: functional
Conditions: read-out: Activity

| SMILES | viability at 25 µM [%] |
| --- | --- |
| NCCCCn1cnc2c(OCc3ccccc3)nc(N)nc21 | ≥ 70 |
| Nc1nc(OCc2ccccc2)c2ncn(CCCCN3C(=O)c4ccccc4C3=O)c2n1 | ≥ 70 |

System: Calf thymus DNA
Assay: Binding affinity to calf thymus DNA assessed as ligand-induced thermal stabilization of DNA duplex by measuring change in melting temperature at 6.25 uM by thermal denaturation analysis
Format: nucleic-acid assay
Conditions: Bos taurus

| SMILES | ΔTm [°C] |
| --- | --- |
| COc1ccc2nc3cc(Cl)ccc3c(N)c2c1 | 8.5 |
| COc1ccc2nc3cc(Cl)ccc3c(NCCCCCCCCn3cnc4c(OCc5ccccc5)nc(N)nc43)c2c1 | 0.7 |
| COc1ccc2nc3cc(Cl)ccc3c(NCCC(=O)NCc3cccc(COc4nc(N)nc5[nH]cnc45)c3)c2c1 | 1.5 |

System: T98G
Assay: Additive antiproliferative activity against human T98G cells assessed as reduction in cell viability at 25 uM pretreated for 2 hrs followed by TMZ addition at 375 uM and measured after 94 hrs by CellTiter-Glo luminescent cell viability assay
Format: functional, cell-based
Conditions: time 96.0 hrs

| SMILES | Activity |
| --- | --- |
| NCCCCn1cnc2c(OCc3ccccc3)nc(N)nc21 | Active |

System: T98G
Assay: Synergistic antiproliferative activity against human T98G cells assessed as reduction in cell viability at 25 uM pretreated for 2 hrs followed by TMZ addition at 94 uM and measured after 94 hrs by CellTiter-Glo luminescent cell viability assay
Format: functional, cell-based
Conditions: time 96.0 hrs

| SMILES | Activity |
| --- | --- |
| NCCCCn1cnc2c(OCc3ccccc3)nc(N)nc21 | Active |
| Nc1nc(OCc2ccccc2)c2ncn(CCCCN3C(=O)c4ccccc4C3=O)c2n1 | Active |

System: T98G
Assay: Additive antiproliferative activity against human T98G cells assessed as reduction in cell viability at 25 uM pretreated for 2 hrs followed by TMZ addition at 188 uM and measured after 94 hrs by CellTiter-Glo luminescent cell viability assay
Format: functional, cell-based
Conditions: time 96.0 hrs

| SMILES | Activity |
| --- | --- |
| NCCCCn1cnc2c(OCc3ccccc3)nc(N)nc21 | Active |
| Nc1nc(OCc2ccccc2)c2ncn(CCCCN3C(=O)c4ccccc4C3=O)c2n1 | Active |

System: T98G
Assay: Additive antiproliferative activity against human T98G cells assessed as reduction in cell viability at GI50 pretreated for 2 hrs followed by TMZ addition at 188 uM and measured after 94 hrs by CellTiter-Glo luminescent cell viability assay
Format: functional, cell-based
Conditions: not given

| SMILES | Activity |
| --- | --- |
| COc1ccc2nc3cc(Cl)ccc3c(N)c2c1 | Active |
| COc1ccc2nc3cc(Cl)ccc3c(NCCCCn3cnc4c(=O)[nH]c(N)nc43)c2c1 | Active |
| COc1ccc2nc3cc(Cl)ccc3c(NCCCCn3cnc4c(Oc5ccccc5)nc(N)nc43)c2c1 | Active |

System: T98G
Assay: Antagonistic antiproliferative activity against human T98G cells assessed as reduction in cell viability at GI50 pretreated for 2 hrs followed by TMZ addition at 375 uM and measured after 94 hrs by CellTiter-Glo luminescent cell viability assay
Format: functional, cell-based
Conditions: time 96.0 hrs

| SMILES | Activity |
| --- | --- |
| COc1ccc2nc3cc(Cl)ccc3c(NCCCCCCCCn3cnc4c(OCc5ccccc5)nc(N)nc43)c2c1 | Active |

System: not listed separately
Assay: Fluorescence property of compound in aqueous solution assessed as quantum yield
Format: physicochemical
Conditions: buffer

| SMILES | Activity |
| --- | --- |
| COc1ccc2nc3cc(Cl)ccc3c(N)c2c1 | 0.36 |
| COc1ccc2nc3cc(Cl)ccc3c(NCCCCCCCCn3cnc4c(OCc5ccccc5)nc(N)nc43)c2c1 | 0.05 |
| COc1ccc2nc3cc(Cl)ccc3c(NCCC(=O)NCc3cccc(COc4nc(N)nc5[nH]cnc45)c3)c2c1 | 0.08 |

System: T98G
Assay: Antagonistic antiproliferative activity against human T98G cells assessed as reduction in cell viability at 25 uM pretreated for 2 hrs followed by TMZ addition at 375 uM and measured after 94 hrs by CellTiter-Glo luminescent cell viability assay
Format: functional, cell-based
Conditions: time 96.0 hrs

| SMILES | Activity |
| --- | --- |
| Nc1nc(OCc2ccccc2)c2ncn(CCCCN3C(=O)c4ccccc4C3=O)c2n1 | Active |

System: T98G
Assay: Antagonistic antiproliferative activity against human T98G cells assessed as reduction in cell viability at GI50 pretreated for 2 hrs followed by TMZ addition at 188 uM and measured after 94 hrs by CellTiter-Glo luminescent cell viability assay
Format: functional, cell-based
Conditions: time 96.0 hrs

| SMILES | Activity |
| --- | --- |
| COc1ccc2nc3cc(Cl)ccc3c(NCCCCCCCCn3cnc4c(OCc5ccccc5)nc(N)nc43)c2c1 | Active |
| COc1ccc2nc3cc(Cl)ccc3c(NCCC(=O)NCc3cccc(COc4nc(N)nc5[nH]cnc45)c3)c2c1 | Active |

System: not listed separately
Assay: Fluorescence property of compound in MeCN assessed as quantum yield
Format: physicochemical
Conditions: not given

| SMILES | Activity |
| --- | --- |
| COc1ccc2nc3cc(Cl)ccc3c(N)c2c1 | 0.22 |
| COc1ccc2nc3cc(Cl)ccc3c(NCCCCCCCCn3cnc4c(OCc5ccccc5)nc(N)nc43)c2c1 | 0.09 |
| COc1ccc2nc3cc(Cl)ccc3c(NCCC(=O)NCc3cccc(COc4nc(N)nc5[nH]cnc45)c3)c2c1 | 0.06 |

System: T98G
Assay: Synergistic antiproliferative activity against human T98G cells assessed as reduction in cell viability at GI50 pretreated for 2 hrs followed by TMZ addition at 94 uM and measured after 94 hrs by CellTiter-Glo luminescent cell viability assay
Format: functional, cell-based
Conditions: time 96.0 hrs

| SMILES | Activity |
| --- | --- |
| COc1ccc2nc3cc(Cl)ccc3c(N)c2c1 | Active |

System: Calf thymus DNA
Assay: Binding affinity to calf thymus DNA assessed as intercalation by measuring dissociation constant at 20 uM measured after 5 mins by UV-Vis spectrophotometric titration analysis
Format: nucleic-acid assay, Bos taurus
Conditions: not given

| SMILES | Kd [µM] |
| --- | --- |
| COc1ccc2nc3cc(Cl)ccc3c(N)c2c1 | 16.1 |
| COc1ccc2nc3cc(Cl)ccc3c(NCCC(=O)NCc3cccc(COc4nc(N)nc5[nH]cnc45)c3)c2c1 | 16.2 |

System: Panel NCI-60 (60 carcinoma cell lines)
Assay: Antiproliferative activity against human Panel NCI-60 (60 carcinoma cell lines) assessed as cell growth inhibition incubated for 48 hrs
Format: functional
Conditions: not given

| SMILES | GI50 [µM] |
| --- | --- |
| COc1ccc2nc3cc(Cl)ccc3c(N)c2c1 | 1 |

System: T98G
Assay: Antagonistic antiproliferative activity against human T98G cells assessed as reduction in cell viability at GI50 pretreated for 2 hrs followed by TMZ addition at 94 uM and measured after 94 hrs by CellTiter-Glo luminescent cell viability assay
Format: functional, cell-based
Conditions: time 96.0 hrs

| SMILES | Activity |
| --- | --- |
| COc1ccc2nc3cc(Cl)ccc3c(NCCCCCCCCn3cnc4c(OCc5ccccc5)nc(N)nc43)c2c1 | Active |

System: Calf thymus DNA
Assay: Displacement of ethidium bromide from calf thymus DNA incubated for 30 mins by fluorescence microplate reader assay
Format: nucleic-acid assay, Bos taurus
Conditions: not given

| SMILES | EC50 [µM] |
| --- | --- |
| COc1ccc2nc3cc(Cl)ccc3c(N)c2c1 | 8 |

System: Calf thymus DNA
Assay: Binding affinity to calf thymus DNA assessed as ligand induced positive CD band at 50 uM by Circular dichroism spectroscopy analysis
Format: nucleic-acid assay
Conditions: Bos taurus

| SMILES | Activity |
| --- | --- |
| COc1ccc2nc3cc(Cl)ccc3c(N)c2c1 | Active |

System: not listed separately
Assay: Fluorescence property of compound in THF assessed as quantum yield
Format: physicochemical
Conditions: not given

| SMILES | Activity |
| --- | --- |
| COc1ccc2nc3cc(Cl)ccc3c(N)c2c1 | 0.22 |
| COc1ccc2nc3cc(Cl)ccc3c(NCCCCCCCCn3cnc4c(OCc5ccccc5)nc(N)nc43)c2c1 | 0.08 |
| COc1ccc2nc3cc(Cl)ccc3c(NCCC(=O)NCc3cccc(COc4nc(N)nc5[nH]cnc45)c3)c2c1 | 0.12 |

System: not listed separately
Assay: Thermal stability of compound in aqueous solution at 10 uM at 20 to 75 degreeC by UV-vis absorption spectroscopy
Format: physicochemical
Conditions: buffer

| SMILES | Stability |
| --- | --- |
| COc1ccc2nc3cc(Cl)ccc3c(NCCCCCCCCn3cnc4c(OCc5ccccc5)nc(N)nc43)c2c1 | Stable |
| COc1ccc2nc3cc(Cl)ccc3c(NCCC(=O)NCc3cccc(COc4nc(N)nc5[nH]cnc45)c3)c2c1 | Stable |

System: not listed separately
Assay: Fluorescence property of compound in MeOH assessed as quantum yield
Format: physicochemical
Conditions: not given

| SMILES | Activity |
| --- | --- |
| COc1ccc2nc3cc(Cl)ccc3c(N)c2c1 | 0.42 |
| COc1ccc2nc3cc(Cl)ccc3c(NCCCCCCCCn3cnc4c(OCc5ccccc5)nc(N)nc43)c2c1 | 0.05 |
| COc1ccc2nc3cc(Cl)ccc3c(NCCC(=O)NCc3cccc(COc4nc(N)nc5[nH]cnc45)c3)c2c1 | 0.07 |

System: T98G
Assay: Additive antiproliferative activity against human T98G cells assessed as reduction in cell viability at 25 uM pretreated for 2 hrs followed by TMZ addition at 94 uM and measured after 94 hrs by CellTiter-Glo luminescent cell viability assay
Format: functional, cell-based
Conditions: time 96.0 hrs

| SMILES | Activity |
| --- | --- |
| COc1ccc2nc3cc(Cl)ccc3c(NCCC(=O)NCc3cccc(COc4nc(N)nc5[nH]cnc45)c3)c2c1 | Active |
| COc1ccc2nc3cc(Cl)ccc3c(NCCCCn3cnc4c(Oc5ccccc5)nc(N)nc43)c2c1 | Active |

System: T98G
Assay: Antiproliferative activity against human T98G cells assessed as cell growth inhibition incubated for 96 hrs by CellTiter-Glo luminescent cell viability assay
Format: functional
Conditions: not given

| SMILES | GI50 [µM] |
| --- | --- |
| COc1ccc2nc3cc(Cl)ccc3c(N)c2c1 | 0.6 |
| COc1ccc2nc3cc(Cl)ccc3c(NCCCCCCCCn3cnc4c(OCc5ccccc5)nc(N)nc43)c2c1 | 14.5 |
| NCCCCn1cnc2c(OCc3ccccc3)nc(N)nc21 | > 25 |
| COc1ccc2nc3cc(Cl)ccc3c(NCCCCn3cnc4c(=O)[nH]c(N)nc43)c2c1 | > 25 |
| COc1ccc2nc3cc(Cl)ccc3c(NCCC(=O)NCc3cccc(COc4nc(N)nc5[nH]cnc45)c3)c2c1 | 15.6 |
| Nc1nc(OCc2ccccc2)c2ncn(CCCCN3C(=O)c4ccccc4C3=O)c2n1 | > 25 |
| COc1ccc2nc3cc(Cl)ccc3c(NCCCCn3cnc4c(Oc5ccccc5)nc(N)nc43)c2c1 | 0.8 |
